Patent publication US8247211B2, “Glycopeptide antibiotics” (American Cyanamid Company, priority 2001, dated 2012)
Converted amounts (≈) assume the structure as drawn.

How the values were obtained:
Staphylococcus sp. = assay: In vitro antibacterial evaluation: minimum inhibitory concentration (MIC), broth dilution method; type: cell-based; details: broth dilution, 18 hours at 35° C.
Outline: (§1)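 Test strains, among them recent clinical isolates carrying methicillin, penicillin and/or vancomycin resistance, were inoculated at 5×10^5 CFU/mL. A broth dilution series spanning 64-0.06 μg/mL in Muller-Hinton II […] (NCCLS M7-A2) defined the MIC as the lowest growth-inhibiting concentration.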

Escherichia coli = assay: as above; type: cell-based
Outline: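 Following NCCLS approved standard M7-A2, compounds are serially diluted from 64 to 0.06 μg/mL in Muller-Hinton II […] and inoculated at 5×10^5 CFU/mL; the MIC is the minimum concentration at which growth is inhibited.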

Enterococcus sp. = assay: as above; type: cell-based
Outline: as §1

Streptococcus sp. = assay: as above; type: cell-based
Outline: as §1

[1] = tested on: Staphylococcus aureus-SMITH (GC 4543); assay: Acute lethal infection in mice (ED50); type: in vivo; details: female CD-1 mice, intraperitoneal challenge, intravenous dose 30 min. after infection, 7 day survival ratios
Outline: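 Median effective dose is calculated from 7-day survival ratios pooled across three separate tests. Mice (female CD-1) receive an intraperitoneal bacterial challenge in broth or hog gastric mucin, then intravenous drug 30 min later, five animals per dose level.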

[2] = broth dilution, inoculum 5×10^5 CFU/mL, 18 hours at 35° C.

With `CC(c1ccccc1)C1NC(=O)CNC(=O)C(CO)NC(=O)C(C(O)C2CNC(=N)N2C2OC(CO)C(O)C(O)C2O)NC(=O)C(C(O)C2CNC(=N)N2)NC(=O)C(Cc2ccc(OC3OC(CO)C(OC4OC5COC(c6cc7c(cc6Cl)OCO7)OC5C(O)C4O)C(O)C3O)cc2)NC1=O` (stereo not drawn) [Example 158, Cyclo[glycyl-β-methylphenylalanyl-O-[4-O-[4,6-O-[(6-chloro-1,3-benzodioxol-5-yl)-methylene]hexopyranosyl]hexopyranosyl]tyrosyl-3-(2-iminoimidazolidin-4-yl)seryl-3-(3-hexopyranosyl-2-iminoimidazolidin-4-yl)serylseryl]] as the molecule, how does the “MIC Coagulase Negative Staphylococcus (GC 4547)” value (Staphylococcus sp.; 5×10^5 CFU/mL) read?
Its value is 2 µg/mL (≈ 1.37 µM).

What about the “MIC Coagulase Negative Staphylococcus (GC 4548)” value (Staphylococcus sp.; 5×10^5 CFU/mL) of the same molecule?
The value was 1 µg/mL (≈ 0.684 µM).

What about the “MIC Coagulase Negative Staphylococcus (GC 4549)” value (Staphylococcus sp.; 5×10^5 CFU/mL) of the same molecule?
Its value is 1 µg/mL (≈ 0.684 µM).

What about the “MIC Coagulase Negative Staphylococcus (GC 4551)” value (Staphylococcus sp.; 5×10^5 CFU/mL) of the same molecule?
The value was 2 µg/mL (≈ 1.37 µM).

And the “MIC Coagulase Negative Staphylococcus (GC 6257)” value (Staphylococcus sp.; 5×10^5 CFU/mL)?
The value was 1 µg/mL (≈ 0.684 µM).

And the “MIC Staphylococcus aureus (ATCC 29213)” value (Staphylococcus sp.; 5×10^5 CFU/mL)?
Its value is 2 µg/mL (≈ 1.37 µM).

What about the “MIC Staphylococcus aureus (GC 1131)” value (Staphylococcus sp.; 5×10^5 CFU/mL) of the same molecule?
The value was 2 µg/mL (≈ 1.37 µM).

And the “MIC Staphylococcus aureus (GC 3051)” value (Staphylococcus sp.; 5×10^5 CFU/mL)?
Its value is 1 µg/mL (≈ 0.684 µM).

What about the “MIC Staphylococcus aureus (GC 3053)” value (Staphylococcus sp.; 5×10^5 CFU/mL) of the same molecule?
The value was 2 µg/mL (≈ 1.37 µM).

And the “MIC Staphylococcus aureus (GC 4541)” value (Staphylococcus sp.; 5×10^5 CFU/mL)?
The value was 1 µg/mL (≈ 0.684 µM).

What about the “MIC Staphylococcus aureus (GC 4542)” value (Staphylococcus sp.; 5×10^5 CFU/mL) of the same molecule?
The value was 1 µg/mL (≈ 0.684 µM).

And the “MIC Staphylococcus aureus (GC 4544)” value (Staphylococcus sp.; 5×10^5 CFU/mL)?
Its value is 2 µg/mL (≈ 1.37 µM).

And the “MIC Staphylococcus aureus (GC 4545)” value (Staphylococcus sp.; 5×10^5 CFU/mL)?
The value was 2 µg/mL (≈ 1.37 µM).

What about the “MIC Staphylococcus aureus-SMITH (GC 4543)” value (Staphylococcus sp.; 5×10^5 CFU/mL) of the same molecule?
The value was 2 µg/mL (≈ 1.37 µM).

What about the “MIC Staphylococcus haemolyticus (GC 4546)” value (Staphylococcus sp.; 5×10^5 CFU/mL) of the same molecule?
The value was 0.5 µg/mL (≈ 0.342 µM).

What about the “MIC Staphylococcus aureus (ATCC 29213)” value (Staphylococcus sp.; strain ATCC 29213) of the same molecule?
Its value is 2 µg/mL (≈ 1.37 µM).

What about the “MIC Staphylococcus aureus (GC 1131)” value (Staphylococcus sp.; strain GC 1131) of the same molecule?
The value was 2 µg/mL (≈ 1.37 µM).

And the “MIC Staphylococcus aureus (GC 3051)” value (Staphylococcus sp.; strain GC 3051)?
The value was 1 µg/mL (≈ 0.684 µM).

And the “MIC Staphylococcus aureus (GC 3053)” value (Staphylococcus sp.; strain GC 3053)?
Its value is 2 µg/mL (≈ 1.37 µM).

What about the “MIC Staphylococcus aureus (GC 4541)” value (Staphylococcus sp.; strain GC 4541) of the same molecule?
The value was 1 µg/mL (≈ 0.684 µM).

What about the “MIC Staphylococcus aureus (GC 4542)” value (Staphylococcus sp.; strain GC 4542) of the same molecule?
Its value is 1 µg/mL (≈ 0.684 µM).

What about the “MIC Staphylococcus aureus-SMITH (GC 4543)” value (Staphylococcus sp.; strain GC 4543) of the same molecule?
Its value is 2 µg/mL (≈ 1.37 µM).

What about the “MIC Staphylococcus aureus (GC 4544)” value (Staphylococcus sp.; strain GC 4544) of the same molecule?
The value was 2 µg/mL (≈ 1.37 µM).

What about the “MIC Staphylococcus aureus (GC 4545)” value (Staphylococcus sp.; strain GC 4545) of the same molecule?
Its value is 2 µg/mL (≈ 1.37 µM).

What about the “MIC Staphylococcus haemolyticus (GC 4546)” value (Staphylococcus sp.; strain GC 4546) of the same molecule?
Its value is 0.5 µg/mL (≈ 0.342 µM).

And the “MIC Coagulase Negative Staphylococcus (GC 4547)” value (Staphylococcus sp.; strain GC 4547)?
The value was 2 µg/mL (≈ 1.37 µM).

What about the “MIC Coagulase Negative Staphylococcus (GC 4548)” value (Staphylococcus sp.; strain GC 4548) of the same molecule?
Its value is 1 µg/mL (≈ 0.684 µM).

And the “MIC Coagulase Negative Staphylococcus (GC 4549)” value (Staphylococcus sp.; strain GC 4549)?
The value was 1 µg/mL (≈ 0.684 µM).

What about the “MIC Coagulase Negative Staphylococcus (GC 4551)” value (Staphylococcus sp.; strain GC 4551) of the same molecule?
The value was 2 µg/mL (≈ 1.37 µM).

What about the “MIC Coagulase Negative Staphylococcus (GC 6257)” value (Staphylococcus sp.; strain GC 6257) of the same molecule?
The value was 1 µg/mL (≈ 0.684 µM).

And the “MIC Escherichia coli (ATCC 25922)” value (Escherichia coli; strain ATCC 25922)?
Its value is 64 µg/mL (≈ 43.8 µM).

And the “MIC Escherichia coli (GC 4559)” value (Escherichia coli; strain GC 4559)?
Its value is 64 µg/mL (≈ 43.8 µM).

And the “MIC Escherichi coli (GC 4560)” value (Escherichia coli; strain GC 4560)?
Its value is 1 µg/mL (≈ 0.684 µM).

What about the “MIC Enterococcus avium (GC 4558)” value (Enterococcus sp.; [2]) of the same molecule?
The value was 4 µg/mL (≈ 2.74 µM).

What about the “MIC Enterococcus faecalis (ATCC 29212)” value (Enterococcus sp.; [2]) of the same molecule?
Its value is 4 µg/mL (≈ 2.74 µM).

And the “MIC Enterococcus faecalis (GC 4552)” value (Enterococcus sp.; [2])?
Its value is 8 µg/mL (≈ 5.47 µM).

What about the “MIC Enterococcus faecalis (GC 4553)” value (Enterococcus sp.; [2]) of the same molecule?
Its value is 4 µg/mL (≈ 2.74 µM).

What about the “MIC Enterococcus faecalis (GC 4554)” value (Enterococcus sp.; [2]) of the same molecule?
The value was 4 µg/mL (≈ 2.74 µM).

And the “MIC Enterococcus faecalis (GC 6189)” value (Enterococcus sp.; [2])?
The value was 4 µg/mL (≈ 2.74 µM).

And the “MIC Enterococcus faecium (GC 2243)” value (Enterococcus sp.; [2])?
The value was 4 µg/mL (≈ 2.74 µM).

And the “MIC Enterococcus faecium (GC 4556)” value (Enterococcus sp.; [2])?
Its value is 8 µg/mL (≈ 5.47 µM).

And the “MIC Enterococcus faecium (GC 4557)” value (Enterococcus sp.; [2])?
Its value is 2 µg/mL (≈ 1.37 µM).

What about the “MIC Enterococcus faecalis (ATCC 29212)” value (Enterococcus sp.; strain ATCC 29212) of the same molecule?
Its value is 4 µg/mL (≈ 2.74 µM).

And the “MIC Enterococcus faecalis (GC 2242)” value (Enterococcus sp.; strain GC 2242)?
Its value is 4 µg/mL (≈ 2.74 µM).

What about the “MIC Enterococcus faecium (GC 2243)” value (Enterococcus sp.; strain GC 2243) of the same molecule?
The value was 4 µg/mL (≈ 2.74 µM).

And the “MIC Enterococcus faecalis (GC 2691)” value (Enterococcus sp.; strain GC 2691)?
The value was 4 µg/mL (≈ 2.74 µM).

What about the “MIC Enterococcus faecalis (GC 3059)” value (Enterococcus sp.; strain GC 3059) of the same molecule?
The value was 4 µg/mL (≈ 2.74 µM).

And the “MIC Enterococcus faecalis (GC 4552)” value (Enterococcus sp.; strain GC 4552)?
Its value is 8 µg/mL (≈ 5.47 µM).

What about the “MIC Enterococcus faecalis (GC 4553)” value (Enterococcus sp.; strain GC 4553) of the same molecule?
Its value is 4 µg/mL (≈ 2.74 µM).

And the “MIC Enterococcus faecalis (GC 4554)” value (Enterococcus sp.; strain GC 4554)?
The value was 4 µg/mL (≈ 2.74 µM).

And the “MIC Enterococcus faecium (GC 4556)” value (Enterococcus sp.; strain GC 4556)?
Its value is 8 µg/mL (≈ 5.47 µM).

What about the “MIC Enterococcus faecium (GC 4557)” value (Enterococcus sp.; strain GC 4557) of the same molecule?
The value was 2 µg/mL (≈ 1.37 µM).

And the “MIC Enterococcus avium (GC 4558)” value (Enterococcus sp.; strain GC 4558)?
Its value is 4 µg/mL (≈ 2.74 µM).

What about the “MIC Enterococcus faecalis (GC 6189)” value (Enterococcus sp.; strain GC 6189) of the same molecule?
Its value is 4 µg/mL (≈ 2.74 µM).

What about the “MIC Streptococcus pneumoniae (ATCC 6301)” value (Streptococcus sp.; strain ATCC 6301) of the same molecule?
Its value is 0.12 µg/mL (≈ 0.0821 µM).

What about the “MIC Streptococcus pneumoniae (GC 1894)” value (Streptococcus sp.; strain GC 1894) of the same molecule?
Its value is less than 0.06 µg/mL.

And the “MIC Streptococcus pyogenes (GC 4563)” value (Streptococcus sp.; strain GC 4563)?
The value was 0.25 µg/mL (≈ 0.171 µM).

And the “MIC Streptococcus agalactiae (GC 4564)” value (Streptococcus sp.; strain GC 4564)?
The value was 0.25 µg/mL (≈ 0.171 µM).

What about the “MIC Streptococcus pneumoniae (GC 4565)” value (Streptococcus sp.; strain GC 4565) of the same molecule?
The value was less than 0.06 µg/mL.

And the median effective dose (ED50), Staphylococcus aureus-SMITH (GC 4543) [1]?
The median effective dose (ED50), Staphylococcus aureus-SMITH (GC 4543) was 0.14 mg/kg.
